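The concentration for 50% growth inhibition is given as GI50. Definition used: TGI = concentration required for complete inhibition of growth.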
How the values were obtained:
Test in all cases: DTP human tumour cell line panel, 384-well format
[1] = system: 786-0 renal
[2] = system: EKVX NSCLC
[3] = system: COLO 205 colon
[4] = system: HS 578T breast
[5] = system: UACC-257 melanoma
[6] = system: OVCAR-3 ovarian
[7] = system: SN12C renal
[8] = system: UACC-62 melanoma
[9] = system: CCRF-CEM leukemia
[10] = system: SF-295 CNS
[11] = system: MDA-MB-468 breast
[12] = system: SF-268 CNS
[13] = system: MDA-MB-435 melanoma
[14] = system: SK-MEL-28 melanoma
[15] = system: A549 NSCLC
[16] = system: MALME-3M melanoma
[17] = system: SNB-19 CNS
[18] = system: PC-3 prostate
[19] = system: HOP-62 NSCLC
[20] = system: MCF7 breast
[21] = system: SW-620 colon
[22] = system: BT-549 breast
[23] = system: ACHN renal
[24] = system: CAKI-1 renal
[25] = system: U251 glioblastoma
[26] = system: SNB-75 CNS
[27] = system: OVCAR-5 ovarian
[28] = system: RXF 393 renal

COc1ccc2[nH]c3c(c2c1)CCN[C@]31CS[C@@H]2c3c(OC(C)=O)c(C)c4c(c3[C@H](COC1=O)N1[C@@H]2[C@H]2c3c(cc(C)c(OC)c3O)C[C@@H]([C@@H]1O)N2C)OCO4
GI50 [1]: 0.194 nM | TGI [1]: 0.348 nM | GI50 [2]: 0.649 nM | TGI [2]: 1.49 nM | GI50 [3]: 0.432 nM | TGI [3]: 1.06 nM | GI50 [4]: 0.13 nM | TGI [4]: 0.372 nM | GI50 [5]: 0.428 nM | TGI [5]: 0.848 nM | GI50 [6]: 0.189 nM | TGI [6]: 0.863 nM | GI50 [7]: 0.107 nM | TGI [7]: 0.422 nM | GI50 [8]: 0.0874 nM | TGI [8]: 0.31 nM | GI50 [9]: 0.0192 nM | TGI [9]: 0.0348 nM | GI50 [10]: 0.0573 nM | TGI [10]: 0.115 nM | GI50 [11]: 0.0569 nM | TGI [11]: 0.119 nM | GI50 [12]: 0.0705 nM | TGI [12]: 0.186 nM | GI50 [13]: 0.594 nM | TGI [13]: 1.1 nM | GI50 [14]: 0.44 nM | TGI [14]: 0.877 nM | GI50 [15]: 0.65 nM | TGI [15]: 2.91 nM | GI50 [16]: 0.0967 nM | TGI [16]: 0.273 nM | GI50 [17]: 0.124 nM | GI50 [18]: 0.337 nM | TGI [18]: 2.85 nM | GI50 [19]: 0.0549 nM | TGI [19]: 0.115 nM | GI50 [20]: 0.12 nM | TGI [20]: 5.95 nM | GI50 [21]: 0.502 nM | TGI [21]: 6.77 nM | GI50 [22]: 0.0503 nM | TGI [22]: 0.113 nM | GI50 [23]: 0.435 nM | TGI [23]: 1.61 nM | GI50 [24]: 0.156 nM | TGI [24]: 6.95 nM | GI50 [25]: 0.112 nM | TGI [25]: 0.554 nM | GI50 [26]: 0.0809 nM | TGI [26]: 0.224 nM | GI50 [27]: 0.51 nM | GI50 [28]: 0.0493 nM

— PubChem BioAssay (NCI)
